# Experimental data from ChEMBL document CHEMBL1201862, “PubChem BioAssay data set” (2004).
# Active and inactive are the calls of the source.
# Experiments:
# [1] = molecular target: T1, DNA repair and recombination protein RAD54-like (Homo sapiens, UniProt Q92698); assay: inhibitors of human RAD54 branch migration, confirmation, biochemical, fluorescence, cherry-picked samples, dose series (AID 651657); assay type: functional
# T1 sequence (Q92698 whole entry): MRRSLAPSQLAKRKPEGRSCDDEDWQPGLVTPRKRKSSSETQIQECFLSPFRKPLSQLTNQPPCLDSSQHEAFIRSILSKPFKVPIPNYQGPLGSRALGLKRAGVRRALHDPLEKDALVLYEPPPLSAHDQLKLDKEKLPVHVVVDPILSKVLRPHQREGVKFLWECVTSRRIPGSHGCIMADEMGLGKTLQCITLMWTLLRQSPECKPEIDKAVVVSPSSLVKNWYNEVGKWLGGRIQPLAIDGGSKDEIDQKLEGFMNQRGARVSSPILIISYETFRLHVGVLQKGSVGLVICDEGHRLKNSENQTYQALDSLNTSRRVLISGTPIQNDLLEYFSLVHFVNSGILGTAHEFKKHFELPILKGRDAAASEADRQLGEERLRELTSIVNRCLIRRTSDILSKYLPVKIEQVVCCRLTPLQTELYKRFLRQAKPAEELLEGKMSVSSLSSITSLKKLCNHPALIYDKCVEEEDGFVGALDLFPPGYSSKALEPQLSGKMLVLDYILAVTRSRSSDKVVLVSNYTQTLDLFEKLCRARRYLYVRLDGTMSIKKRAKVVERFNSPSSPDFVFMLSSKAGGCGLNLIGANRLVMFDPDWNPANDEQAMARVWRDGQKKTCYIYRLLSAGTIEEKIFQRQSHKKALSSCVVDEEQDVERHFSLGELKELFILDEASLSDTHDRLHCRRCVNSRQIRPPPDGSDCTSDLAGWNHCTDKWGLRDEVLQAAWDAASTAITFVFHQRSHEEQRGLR
# cells [2] = assay type: functional
# [3] = molecular target: T2, Histone-lysine N-methyltransferase NSD2 (Homo sapiens, UniProt O96028); assay type: biochemical
# T2 sequence (O96028 whole entry): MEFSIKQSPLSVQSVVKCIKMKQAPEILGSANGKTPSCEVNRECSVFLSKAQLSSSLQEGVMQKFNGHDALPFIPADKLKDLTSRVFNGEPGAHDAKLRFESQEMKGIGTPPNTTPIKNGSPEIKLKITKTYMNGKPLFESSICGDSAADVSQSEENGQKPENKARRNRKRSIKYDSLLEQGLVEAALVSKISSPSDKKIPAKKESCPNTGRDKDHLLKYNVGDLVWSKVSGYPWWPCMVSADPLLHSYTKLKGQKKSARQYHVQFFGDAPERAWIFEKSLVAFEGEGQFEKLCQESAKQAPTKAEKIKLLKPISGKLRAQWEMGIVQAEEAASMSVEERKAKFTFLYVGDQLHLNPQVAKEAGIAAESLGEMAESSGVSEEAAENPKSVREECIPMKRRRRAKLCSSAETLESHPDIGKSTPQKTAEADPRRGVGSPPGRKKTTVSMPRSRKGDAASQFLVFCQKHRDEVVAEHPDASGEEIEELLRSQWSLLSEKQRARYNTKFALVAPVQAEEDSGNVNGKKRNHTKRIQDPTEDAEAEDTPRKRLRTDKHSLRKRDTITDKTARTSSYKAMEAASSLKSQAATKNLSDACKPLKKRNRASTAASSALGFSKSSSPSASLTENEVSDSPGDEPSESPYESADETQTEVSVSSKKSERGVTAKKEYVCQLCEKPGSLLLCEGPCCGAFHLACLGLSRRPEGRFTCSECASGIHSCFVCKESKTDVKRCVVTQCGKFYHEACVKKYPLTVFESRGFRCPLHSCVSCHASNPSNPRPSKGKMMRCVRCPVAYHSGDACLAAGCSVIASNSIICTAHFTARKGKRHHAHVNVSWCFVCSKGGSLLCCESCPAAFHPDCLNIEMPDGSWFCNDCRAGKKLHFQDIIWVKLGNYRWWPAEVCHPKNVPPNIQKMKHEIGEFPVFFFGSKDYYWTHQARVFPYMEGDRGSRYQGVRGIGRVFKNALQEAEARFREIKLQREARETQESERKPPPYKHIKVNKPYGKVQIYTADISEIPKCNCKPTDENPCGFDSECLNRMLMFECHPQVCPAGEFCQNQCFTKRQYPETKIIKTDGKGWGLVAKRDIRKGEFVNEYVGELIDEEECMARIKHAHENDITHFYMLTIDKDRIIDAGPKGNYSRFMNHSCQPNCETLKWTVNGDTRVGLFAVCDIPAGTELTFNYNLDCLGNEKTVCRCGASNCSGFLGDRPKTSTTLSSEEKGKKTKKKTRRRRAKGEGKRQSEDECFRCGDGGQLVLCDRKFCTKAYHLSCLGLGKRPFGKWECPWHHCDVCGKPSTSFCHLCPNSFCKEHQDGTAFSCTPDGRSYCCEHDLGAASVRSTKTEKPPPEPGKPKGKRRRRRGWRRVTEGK
# [4] = growth suppression of beta-catenin-knockout colon cells, dose response, cell-based, HCT116, human colon tumor (AID 1045); assay type: functional;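 also: HCT116 colon tumor cells with beta catenin knocked out; cells exposed to compound for 60 hours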
# [5] = growth suppression of PTEN-null colon cells, dose response, cell-based, HCT116 PTEN knockout (AID 1047); assay type: functional;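 also: HCT116 colon tumor cells with PTEN knocked out; cells exposed to compound for 60 hours before readout; potency for loss of cell viability measured by luminescence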
# Cytochrome P450 2C9 = Cytochrome P450 2C9 (Homo sapiens, UniProt P11712)
# Cytochrome P450 2C19 = Cytochrome P450 2C19 (Homo sapiens, UniProt P33261); assay: Cytochrome panel assay with activity outcomes. Panel member name: p450-cyp2c19 Compounds with AC50 equal or less than 10 uM are considered active; assay type: functional
# [6] = cytotoxicity toward NIH3T3 fibroblasts, dose response, counter-screen, cell-based, ATP luminescence, mouse fibroblasts (AID 2010); assay type: functional;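 also: cells exposed to compound for about 90 hours before reading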
# [7] = inhibitors of intracellular T. cruzi replication, confirmation, NIH3T3 host cells, beta-gal luminescence (AID 2044); assay type: functional, cell-based;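 also: intracellular parasites grown in NIH/3T3 mouse fibroblasts as host cells; luminescent beta-galactosidase reporter signal from transgenic T. cruzi replicating inside host cells; inhibitors lower the luminescence signal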
# Protein skinhead-1 = molecular target: T3, Protein skinhead-1 (Caenorhabditis elegans, UniProt P34707); assay type: functional
# T3 sequence (P34707 whole entry): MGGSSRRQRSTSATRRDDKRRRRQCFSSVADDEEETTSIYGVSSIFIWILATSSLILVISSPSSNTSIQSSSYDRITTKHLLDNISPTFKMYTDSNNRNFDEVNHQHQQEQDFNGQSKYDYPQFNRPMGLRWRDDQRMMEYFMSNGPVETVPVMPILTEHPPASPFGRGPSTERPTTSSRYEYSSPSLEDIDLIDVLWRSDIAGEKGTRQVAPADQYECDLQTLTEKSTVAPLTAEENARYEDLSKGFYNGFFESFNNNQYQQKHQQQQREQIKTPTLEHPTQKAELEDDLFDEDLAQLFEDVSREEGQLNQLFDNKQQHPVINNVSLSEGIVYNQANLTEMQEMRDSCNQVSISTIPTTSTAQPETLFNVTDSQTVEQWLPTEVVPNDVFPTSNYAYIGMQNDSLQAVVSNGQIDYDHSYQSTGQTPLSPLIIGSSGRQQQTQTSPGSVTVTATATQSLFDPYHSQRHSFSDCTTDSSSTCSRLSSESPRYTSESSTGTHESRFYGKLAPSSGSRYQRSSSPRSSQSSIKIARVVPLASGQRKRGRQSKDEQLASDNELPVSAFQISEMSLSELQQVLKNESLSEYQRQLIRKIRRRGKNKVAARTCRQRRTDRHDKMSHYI
# [8] = molecular target: T4, RNA-binding protein pos-1 (Caenorhabditis elegans, UniProt G5EF15); assay: inhibitors of POS-1/mex-3 RNA binding, dose response, biochemical, fluorescence polarization (AID 1964);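 also: purified POS-1 fused to maltose binding protein made in E. coli; potency of compounds blocking POS-1 binding to fluorescent RNA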
# T4 sequence (G5EF15 whole entry): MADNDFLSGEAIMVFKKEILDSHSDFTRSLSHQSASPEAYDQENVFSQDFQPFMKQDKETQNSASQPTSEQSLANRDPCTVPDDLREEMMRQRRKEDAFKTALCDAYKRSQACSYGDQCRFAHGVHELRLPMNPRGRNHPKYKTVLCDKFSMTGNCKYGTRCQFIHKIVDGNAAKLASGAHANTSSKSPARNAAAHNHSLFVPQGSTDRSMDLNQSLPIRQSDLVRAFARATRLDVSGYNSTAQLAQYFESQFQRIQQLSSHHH
# cells [9] = assay: cells
# [10] = molecular target: T5, Zinc finger protein mex-5 (Caenorhabditis elegans, UniProt Q9XUB2); assay: MEX-5/TCR-2 RNA interaction inhibitors, dose response, biochemical, C. elegans, fluorescence polarization (AID 1960)
# T5 sequence (Q9XUB2 whole entry): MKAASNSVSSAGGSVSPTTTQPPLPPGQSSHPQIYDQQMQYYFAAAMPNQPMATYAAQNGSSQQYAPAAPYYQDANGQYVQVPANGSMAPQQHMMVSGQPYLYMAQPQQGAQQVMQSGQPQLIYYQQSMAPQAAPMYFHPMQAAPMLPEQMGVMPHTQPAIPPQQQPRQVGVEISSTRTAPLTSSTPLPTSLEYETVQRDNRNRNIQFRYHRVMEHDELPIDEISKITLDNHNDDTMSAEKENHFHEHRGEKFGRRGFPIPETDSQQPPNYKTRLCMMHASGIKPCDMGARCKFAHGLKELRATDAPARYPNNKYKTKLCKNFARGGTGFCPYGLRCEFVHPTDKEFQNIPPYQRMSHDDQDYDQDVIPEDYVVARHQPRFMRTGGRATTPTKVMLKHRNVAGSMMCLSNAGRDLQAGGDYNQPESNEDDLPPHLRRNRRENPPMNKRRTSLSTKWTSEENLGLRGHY
# Cytochrome P450 1A2 = molecular target: T6, Cytochrome P450 1A2 (Homo sapiens, UniProt P05177);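 also: PubChem cytochrome P450 panel assay, CYP1A2 panel member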
# T6 sequence (P05177 whole entry): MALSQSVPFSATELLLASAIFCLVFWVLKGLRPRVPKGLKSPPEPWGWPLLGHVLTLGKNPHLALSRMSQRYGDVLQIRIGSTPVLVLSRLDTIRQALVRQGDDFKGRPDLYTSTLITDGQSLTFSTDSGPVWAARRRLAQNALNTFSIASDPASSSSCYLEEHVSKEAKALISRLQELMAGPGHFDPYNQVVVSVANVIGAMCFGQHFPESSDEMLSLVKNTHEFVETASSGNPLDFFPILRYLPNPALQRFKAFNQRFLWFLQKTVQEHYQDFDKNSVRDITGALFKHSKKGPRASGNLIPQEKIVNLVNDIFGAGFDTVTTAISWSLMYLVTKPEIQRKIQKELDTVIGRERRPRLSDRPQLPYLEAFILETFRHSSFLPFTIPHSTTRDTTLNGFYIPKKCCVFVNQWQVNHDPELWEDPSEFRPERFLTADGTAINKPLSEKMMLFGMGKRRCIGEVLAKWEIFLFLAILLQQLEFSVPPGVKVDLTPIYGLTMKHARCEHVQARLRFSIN
# Cytochrome P450 3A4 = Cytochrome P450 3A4 (Homo sapiens, UniProt P08684);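 also: CYP3A4 tested as one member of a cytochrome P450 panel screen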
# [11] = molecular target: T7, DNA repair protein RAD52 homolog (Homo sapiens, UniProt P43351); assay type: functional, biochemical
# T7 sequence (P43351 whole entry): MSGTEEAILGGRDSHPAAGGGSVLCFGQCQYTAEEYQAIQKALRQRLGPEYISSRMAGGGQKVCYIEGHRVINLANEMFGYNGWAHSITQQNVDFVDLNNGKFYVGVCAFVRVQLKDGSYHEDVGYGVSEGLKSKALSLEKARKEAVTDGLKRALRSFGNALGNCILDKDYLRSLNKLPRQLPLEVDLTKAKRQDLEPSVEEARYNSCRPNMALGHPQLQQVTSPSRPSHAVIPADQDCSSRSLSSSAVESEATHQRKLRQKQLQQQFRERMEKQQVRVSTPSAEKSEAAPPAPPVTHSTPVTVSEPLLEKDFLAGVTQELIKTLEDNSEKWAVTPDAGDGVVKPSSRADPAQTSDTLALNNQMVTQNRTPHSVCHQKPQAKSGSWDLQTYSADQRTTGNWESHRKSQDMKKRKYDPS
# Sequence of Cytochrome P450 2C9 (P11712 whole entry): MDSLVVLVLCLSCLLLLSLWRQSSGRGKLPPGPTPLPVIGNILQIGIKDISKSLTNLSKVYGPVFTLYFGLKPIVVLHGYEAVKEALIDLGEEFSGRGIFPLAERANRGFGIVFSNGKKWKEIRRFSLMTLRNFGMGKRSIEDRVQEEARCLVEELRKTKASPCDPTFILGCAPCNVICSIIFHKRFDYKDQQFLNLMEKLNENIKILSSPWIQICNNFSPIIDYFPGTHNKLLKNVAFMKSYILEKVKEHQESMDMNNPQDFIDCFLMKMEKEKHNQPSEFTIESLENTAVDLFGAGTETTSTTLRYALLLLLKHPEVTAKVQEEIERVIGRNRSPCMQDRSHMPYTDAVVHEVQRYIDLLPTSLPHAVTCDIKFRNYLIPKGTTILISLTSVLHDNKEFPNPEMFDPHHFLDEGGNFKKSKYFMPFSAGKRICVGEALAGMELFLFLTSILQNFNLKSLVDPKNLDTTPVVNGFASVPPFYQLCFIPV
# Sequence of Cytochrome P450 2C19 (P33261 whole entry): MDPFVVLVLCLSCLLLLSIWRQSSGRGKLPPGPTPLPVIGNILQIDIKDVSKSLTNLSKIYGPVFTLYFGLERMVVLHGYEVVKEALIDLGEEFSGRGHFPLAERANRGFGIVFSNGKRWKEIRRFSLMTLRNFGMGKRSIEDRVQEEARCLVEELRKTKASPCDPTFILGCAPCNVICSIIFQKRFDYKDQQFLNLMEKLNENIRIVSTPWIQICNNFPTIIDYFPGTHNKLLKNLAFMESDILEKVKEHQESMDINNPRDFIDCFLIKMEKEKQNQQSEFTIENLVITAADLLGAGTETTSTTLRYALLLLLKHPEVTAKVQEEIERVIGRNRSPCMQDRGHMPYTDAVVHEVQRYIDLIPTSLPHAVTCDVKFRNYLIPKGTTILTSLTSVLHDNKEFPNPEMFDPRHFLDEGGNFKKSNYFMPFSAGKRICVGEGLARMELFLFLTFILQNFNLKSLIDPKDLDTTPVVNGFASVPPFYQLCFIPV
# Sequence of Cytochrome P450 3A4 (P08684 whole entry): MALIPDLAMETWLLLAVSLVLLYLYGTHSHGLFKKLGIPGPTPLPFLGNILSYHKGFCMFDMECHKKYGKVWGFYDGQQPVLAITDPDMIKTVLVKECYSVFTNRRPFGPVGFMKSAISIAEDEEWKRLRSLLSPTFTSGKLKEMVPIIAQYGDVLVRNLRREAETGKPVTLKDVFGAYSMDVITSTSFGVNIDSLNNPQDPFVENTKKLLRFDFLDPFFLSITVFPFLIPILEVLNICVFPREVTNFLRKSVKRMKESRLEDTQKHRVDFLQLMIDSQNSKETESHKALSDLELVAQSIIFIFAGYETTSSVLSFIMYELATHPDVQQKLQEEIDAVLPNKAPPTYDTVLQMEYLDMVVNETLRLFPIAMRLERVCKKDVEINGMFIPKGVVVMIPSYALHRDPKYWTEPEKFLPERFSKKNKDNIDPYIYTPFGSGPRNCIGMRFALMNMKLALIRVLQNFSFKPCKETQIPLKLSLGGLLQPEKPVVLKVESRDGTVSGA
smiles,measurement,setting,value
NCc1csc(Nc2nncc3ccccc23)n1,AC50,[1],23.7 µM (active)
CSCCOC(=O)COc1ccc(/C=N/NC(=O)c2c(Cl)cnn2C)cc1,IC50,cells [2],4.7 µM (active)
CCN(CC)CCNS(=O)(=O)c1ccc2c3c(cccc13)C(=O)N2,AC50,[3],> 20 µM (inactive)
CN1CCN(c2nc(-c3cccc([N+](=O)[O-])c3)nc3ccccc23)CC1,AC50,[1],7.36 µM (active)
CCN(CC)CCNC(=O)c1cc2c(-c3ccc(Cl)cc3)nn(C)c2s1,EC50,[4],4.09 µM (active)
same,EC50,[5],5.5 µM (active)
same,AC50,[1],6.7 µM (active)
O=C(c1ccccc1)N(Cc1ccco1)C1CCS(=O)(=O)C1 (centres undefined),AC50,Cytochrome P450 2C9,inconclusive
same,AC50,Cytochrome P450 2C19; read-out: AC50,31.6 µM (inconclusive)
CCOC(=O)N/N=C(/C)c1ccc([N+](=O)[O-])o1,EC50,[6],> 30 µM (not active)
same,AC50,Cytochrome P450 2C9,inconclusive
same,AC50,Cytochrome P450 2C19; read-out: AC50,25.1 µM (inconclusive)
same,EC50,[7],0.589 µM (active)
CSc1ccccc1NC(=O)c1cc(C(C)C)on1,IC50,cells [2],27.9 µM (active)
CCN(CC)S(=O)(=O)c1cccc2c(N(C)C)cccc12,AC50,Cytochrome P450 2C9,inconclusive
same,IC50,Protein skinhead-1,> 100 µM (inactive)
CC(=N)/C(C#N)=C(/O)CSc1ncnc2ccccc12,EC50,[8],> 300 µM (not active)
same,IC50,cells [9],17.9 µM (active)
same,EC50,[10],8.02 µM (active)
COc1cc(C(=O)NCCC(C)C)c([N+](=O)[O-])cc1OC,AC50,Cytochrome P450 2C9,inconclusive
COc1ncc2nc(C)c(=O)n(CCC#N)c2n1,AC50,Cytochrome P450 2C9,inconclusive
same,AC50,Cytochrome P450 2C19,inconclusive
same,AC50,Cytochrome P450 1A2,15.8 µM (inconclusive)
O=C(Nc1nnc(-c2ccc(Br)cc2)o1)C1=COCCO1,IC50,cells [2],5.97 µM (active)
O=C(N/N=C/c1cccc(F)c1)c1csc2c1CCCC2,AC50,Cytochrome P450 2C9,inconclusive
same,AC50,Cytochrome P450 3A4,15.8 µM (inconclusive)
COc1cccc2sc3cc(NCCCN4CCOCC4)ccc3c(=O)c12,AC50,[11],5.68 µM (active)
same,AC50,[1],10.6 µM (active)
c1ccc(-c2nnc(SCc3nnc(-c4cccs4)o3)o2)cc1,IC50,cells [2],30.4 µM (active)
